Measured values taken from ChEMBL document CHEMBL1201862, “PubChem BioAssay data set” (2004).
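Dose response: 5 concentrations. Exposure: 48 h. Format: 96-well plates. Endpoint: linear interpolation; highest concentration if not reached. The concentration for 50% growth inhibition is given as GI50.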 The source made the active and inactive calls. No stated cut-off is given here; in the data, active = GI50 up to about 1.1 µM and inactive = higher.

Tests used:
Experiment in all cases: NCI anticancer screen, dose series, 48 h
[1] = system: 786-0
[2] = system: A498
[3] = system: A549
[4] = system: ACHN
[5] = system: CAKI-1
[6] = system: CCRF-CEM
[7] = system: COLO 205
[8] = system: DLD-1
[9] = system: DMS-114
[10] = system: DMS-273
[11] = system: EKVX
[12] = system: HCC 2998
[13] = system: HCT-116
[14] = system: HCT-15
[15] = system: HL-60
[16] = system: HOP-62
[17] = system: HOP-92
[18] = system: K562
[19] = system: KM-20L2
[20] = system: KM12
[21] = system: LOX IMVI
[22] = system: LXFL 529
[23] = system: M14
[24] = system: M19-MEL
[25] = system: MOLT-4
[26] = system: Malme-3M
[27] = system: NCI-H226
[28] = system: NCI-H23
[29] = system: NCI-H460
[30] = system: NCI-H522
[31] = system: OVCAR-3
[32] = system: OVCAR-4
[33] = system: OVCAR-5
[34] = system: OVCAR-8
[35] = system: RPMI-8226
[36] = system: SF-268
[37] = system: SF-539
[38] = system: SK-MEL-28
[39] = system: SK-MEL-2
[40] = system: SK-MEL-5
[41] = system: SK-OV-3
[42] = system: SN12C
[43] = system: SNB-19
[44] = system: SNB-75
[45] = system: SNB-78
[46] = system: SR
[47] = system: SW-620
[48] = system: TK-10
[49] = system: U-251
[50] = system: UACC-257
[51] = system: UACC-62
[52] = system: UO-31
[53] = system: XF498

SMILES: CCN(CC)CC1CCCCN1CC(=O)N1c2cc(Cl)ccc2NC(=O)CC1C (stereo not drawn)
- GI50 [1]: > 100 µM (inactive)
- GI50 [2]: > 100 µM (inactive)
- GI50 [3]: > 100 µM (inactive)
- GI50 [4]: > 100 µM (inactive)
- GI50 [5]: > 100 µM (inactive)
- GI50 [6]: > 100 µM (inactive)
- GI50 [7]: > 100 µM (inactive)
- GI50 [8]: > 100 µM (inactive)
- GI50 [9]: > 100 µM (inactive)
- GI50 [10]: > 100 µM (inactive)
- GI50 [11]: > 100 µM (inactive)
- GI50 [12]: > 100 µM (inactive)
- GI50 [13]: > 100 µM (inactive)
- GI50 [14]: > 10 µM
- GI50 [15]: > 100 µM (inactive)
- GI50 [16]: > 100 µM (inactive)
- GI50 [17]: > 100 µM (inactive)
- GI50 [18]: > 100 µM (inactive)
- GI50 [19]: > 100 µM (inactive)
- GI50 [20]: > 100 µM (inactive)
- GI50 [21]: > 100 µM (inactive)
- GI50 [22]: > 100 µM (inactive)
- GI50 [23]: > 100 µM (inactive)
- GI50 [24]: > 100 µM (inactive)
- GI50 [25]: > 100 µM (inactive)
- GI50 [26]: > 100 µM (inactive)
- GI50 [27]: > 100 µM (inactive)
- GI50 [28]: > 100 µM (inactive)
- GI50 [29]: > 100 µM (inactive)
- GI50 [30]: > 100 µM (inactive)
- GI50 [31]: > 100 µM (inactive)
- GI50 [32]: > 100 µM (inactive)
- GI50 [33]: > 100 µM (inactive)
- GI50 [34]: > 100 µM (inactive)
- GI50 [35]: > 100 µM (inactive)
- GI50 [36]: > 100 µM (inactive)
- GI50 [37]: > 100 µM (inactive)
- GI50 [38]: > 100 µM (inactive)
- GI50 [39]: > 100 µM (inactive)
- GI50 [40]: > 100 µM (inactive)
- GI50 [41]: 0.0849 µM (active)
- GI50 [42]: > 100 µM (inactive)
- GI50 [43]: > 100 µM (inactive)
- GI50 [44]: > 100 µM (inactive)
- GI50 [45]: > 100 µM (inactive)
- GI50 [46]: > 100 µM (inactive)
- GI50 [47]: > 100 µM (inactive)
- GI50 [48]: > 100 µM (inactive)
- GI50 [49]: > 100 µM (inactive)
- GI50 [50]: > 100 µM (inactive)
- GI50 [51]: 55.3 µM (inactive)
- GI50 [52]: > 100 µM (inactive)
- GI50 [53]: > 100 µM (inactive)
